Assays:
mouse ES cells (SK7) = test: Immunohistochemical analysis of AFP-, Pdx1/GFP- and Alb-expressing cells in mouse ES cells differentiated on M15 cells; format: cell-based; conditions: for number of AFP-positive cells: factor added after d4, 10% KSR, 2,000 mg/L glucose (FIG. 3); for AFP expression, one factor added: one factor added d4 to d8, KSR, glucose 2,000 mg/L (FIG. 2B)
Description: A previously reported SK7 cell line (mouse ES cells) having a Pdx1 promoter-derived GFP reporter-introduced gene was used (International Publication WO2006/126574). The SK7 ES cells were maintained on mouse embryonic fibroblasts (MEF), using a Glasgow minimum essential medium (Invitrogen) supplemented with 1,000 units/mL leukemia inhibitory factor (Chemicon), 15% KSR (knockout serum replacement; Gibco), 1% fetal bovine serum (FBS; Hyclone), 100 μM nonessential amino acid (Invitrogen), 2 mM L-glutamine (Invitrogen), 1 mM sodium pyruvate (Invitrogen), 50 units/mL penicillin, 50 μg/mL streptomycin (Invitrogen) and 100 μM β-mercaptoethanol.
Thereafter, the ES cells (the number of cells: 5,000 and 20,000, respectively) were inoculated on a 24-well or 6-well plate (Nunc) that had previously been coated with the M15 cells. Subsequently, using DMEM containing 100 μM nonessential amino acid, 2 mM L-glutamine, 50 units/mL penicillin, 50 μg/mL streptomycin and 100 μM β-mercaptoethanol, the cells were cultured in a differentiation culture solution containing 10% FBS and 4,500 mg/L glucose from the initial day of culture (d0) to day 4 (d4), and after d4, the cells were then cultured in another culture solution containing 10% KSR and 2,000 mg/L glucose. Thus, the cells were cultured for a maximum of 30 days. In order to induce the […] endoderm, activin A (20 ng/mL) and bFGF (50 ng/mL) were added during the period from d0 to d4. Moreover, HGF (10 ng/mL) and dexamethasone (1 μM) were added during the period from d4 to d30. The culture solution was replaced with a fresh one containing a growth factor every two days. The details of such growth factor will be described at the end of the diferentiation section.
Recombinant human activin A (R&D Systems): 20 ng/mL; recombinant human bFGF (Peprotech): 50 ng/mL; recombinant human BMP4 (R&D Systems): 50 ng/mL; SU5402 (Mohammadi, et al., (1997). Science 276, 955-60.) (Calbiochem): 10 μM; recombinant mouse Noggin/Fc Chimera (R&D Systems): 100 ng/mL; recombinant human hepatic cell growth factor (HGF, Peprotech): 10 ng/mL; dexamethasone (Dex, Sigma): 1 μM; recombinant human oncostatin M (OSM, Sigma): 10 ng/mL.
For whole mount immunocytochemical analysis, ES cells were inoculated on 24-well Thennanox coverslips (Nunc). Using TCS-SP2 Spectral Confocal Scanning System (Leica), a confocal image was obtained. Using IX 71 Inverted (Olympus), a phase-contrast image was obtained. The following antibodies were used in detection: mouse anti-GFP (Roche), rabbit anti-α-fetoprotein (AFP, Biomeda), goat anti-albumin (Sigma), fluorescein isothiocyanate (FITC)-labeled Dolichos biflorus agglutinin (DBA) lectin (Sigma), rabbit anti-α-1-anti-trypsin (Sigma), rabbit anti-CYP3A2 (Biomol), rabbit anti-CYP7A1 (Santa Cruz), and mouse anti-Oct3/4 (Santa Cruz). As secondary antibodies, an Alexa568-labeled goat anti-rabbit antibody, donkey anti-goat antibody (Molecular Probes), and an Alexa488-labeled goat anti-mouse antibody, goat anti-rabbit antibody, and donkey anti-goat antibody (Molecular Probes) were used. The cells were subjected to counterstaining using DAPI (Roche). In order to quantify the number of the Afp-expressing cells of FIG. 3B, the region of an Afp-positive stained image was analyzed using Lumina Vision program (Mitani Corporation).

[1] = system: mouse ES cell-derived hepatic cells; test: Albumin secretion analysis by ELISA; format: cell-based
Description: The medium was replaced with a fresh one, and 24 hours later, the conditioned medium was recovered. Using Lebis ELISA kit (Shibayagi), albumin secretion was analyzed.
It has been reported that OsM induces maturation of mouse fetal liver cells (Kamiya, A., Kinoshita, T. & Miyajima, A. (2001) Oncostatin M and hepatocyte growth factor induce hepatic maturation via distinct signaling pathways. FEBS Lett 492, 90-94). Thus, the influence of OsM on albumin secretion was analyzed by ELISA. The effect of OsM to enhance albumin secretion was not observed until […].

Row | Molecule | number of AFP-positive cells (mouse ES cells (SK7)) | AFP expression, one factor added (mouse ES cells (SK7)) | also measured
1 | Cc1c[nH]c(/C=C2\C(=O)Nc3ccccc32)c1CCC(=O)O [SU5402, reference compound] | decreased |  | 
2 | Noggin | almost all AFP-expressing cells disappeared |  | 
3 | HGF: recombinant human hepatic cell growth factor (Peprotech) |  | promoted in the order of Dex>HGF>OsM | 
4 | bFGF: recombinant human bFGF (Peprotech) | increased |  | AFP-expressing cells when bFGF was added to Noggin (mouse ES cells (SK7); in the presence of Noggin, after d4, 10% KSR, 2,000 mg/L glucose (FIG. 3)): recovered
5 | OsM: recombinant human oncostatin M (Sigma) (protein, UniProt P13725 26-221, looked up) Oncostatin-M: AAIGSCSKEYRVLLGQLQKQTDLMQDTSRLLDPYIRIQGLDVPKLREHCRERPGAFPSEETLRGLGRRGFLQTLNATLGCVLHRLADLEQRLPKAQDLERSGLNIEDLEKLQMARPNILGLRNNIYCMAQLLDNSDTAEPTKAGRGASQPPTPTPASDAFQRKLEGCRFLHGYHRFMHSVGRVFSKWGESPNRSRR |  | promoted in the order of Dex>HGF>OsM | increase of albumin secretion ([1]; d50 and d60, medium with OsM, Dex and HGF versus control medium with only Dex and HGF, 24 hours): 2 times; effect to enhance albumin secretion ([1]; until c40, OsM added to Dex and HGF): not observed

Reference: patent US8309353B2, “Method for induction of differentiation of ES cell” (Kumamoto University, priority 2007, dated 2012)
